Results on 35 molecules are retold here after patent US8664257B2, “Oxygen-substituted 3-heteroaroylamino-propionic acid derivatives and their use as pharmaceuticals” (Sanofi, priority 2010, dated 2014).

Structures are written as SMILES.

The target of one test is T1, Recombinant human cathepsin A (Homo sapiens, UniProt P10619).
T1 construct: Recombinant human cathepsin A (residues 29-480, with a C-terminal 10-His tag); 10-His (C); purchased R&D Systems 1049-SE
T1 sequence (P10619 29-312 limits assumed): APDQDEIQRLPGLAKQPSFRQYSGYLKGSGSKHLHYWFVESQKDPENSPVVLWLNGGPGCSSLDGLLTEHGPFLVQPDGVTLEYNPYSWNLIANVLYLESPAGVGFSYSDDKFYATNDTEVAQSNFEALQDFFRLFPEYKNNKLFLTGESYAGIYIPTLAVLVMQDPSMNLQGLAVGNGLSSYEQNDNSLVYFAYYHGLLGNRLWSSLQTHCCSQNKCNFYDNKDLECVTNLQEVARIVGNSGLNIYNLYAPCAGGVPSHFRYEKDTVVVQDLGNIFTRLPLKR
T1 sequence (P10619 327-480 limits assumed): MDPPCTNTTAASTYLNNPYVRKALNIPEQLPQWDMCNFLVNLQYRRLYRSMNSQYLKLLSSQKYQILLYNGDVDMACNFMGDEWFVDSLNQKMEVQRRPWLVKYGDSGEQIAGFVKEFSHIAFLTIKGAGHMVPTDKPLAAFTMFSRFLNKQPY
The test is described as follows: Cathepsin A inhibitory activity. It is filed as biochemical. As to conditions: pharmacological test "Cathepsin A inhibitory activity"; IC50 given as class A/B/C; read-out: Activity (2): Cathepsin A inhibitory activity, IC50 class. A digest of the protocol:
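Human cathepsin A (res. 29-480, C-His10) pre-activated with cathepsin L (MES pH 6.0, DTT, 15 min, 37 °C; quenched with 10 μM E-64). Enzyme (833 ng/ml) preincubated 15 min RT with compound in MES pH 5.5/DTT, then 2 μM Bodipy FL-bradykinin for 15 min RT. Capillary electrophoresis product/substrate peak areas; IC50 from % inhibition.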
One may read the IC50 as the concentration that inhibits the measured activity by half. `COc1ccc(C(CC(=O)O)NC(=O)c2cc(O)n(-c3ccc(F)cc3F)n2)c(Cl)c1` (centres unmarked) [Example 179]: the concentration for half-maximal inhibition (IC50) is 100 to 1000 nM.
On the same count and under the same terms, the figure for `O=C(O)C[C@H](NC(=O)c1cc(O)n(-c2ccc(F)cc2F)n1)c1ccccc1C(F)(F)F` [Example 198] is 100 to 1000 nM; for `Cc1cccc([C@H](CC(=O)O)NC(=O)c2cc(O)n(-c3ccc(F)cc3F)n2)c1` [Example 190] it is 100 to 1000 nM.
On the same count and under the same terms, the figure for `O=C(O)C[C@H](NC(=O)c1cc(O)n(-c2cccc(Cl)c2)n1)c1ccc(Cl)cc1Cl` [Example 266] is 100 to 1000 nM; for `O=C(O)C[C@H](NC(=O)c1cc(O)n(-c2cccc(Cl)c2)n1)c1c(F)cccc1F` [Example 265] it is 100 to 1000 nM.

The same test, now with this note: read-out: Activity (2): Cathepsin A inhibitory activity (IC50 class).
As to `Cc1ccc([C@H](CC(=O)O)NC(=O)c2cc(OC[C@@](C)(O)C(C)(C)C)n(-c3ccccc3F)n2)cc1` [Example 781, (S)-3-{[1-(2-Fluoro-phenyl)-5-((S)-2-hydroxy-2,3,3-trimethyl-butoxy)-1H-pyrazole-3-carbonyl]-amino}-3-p-tolyl-propionic acid], the IC50 is less than 100 nM.
On the same count and under the same terms, the same measure for `Cc1ccccc1[C@H](CC(=O)O)NC(=O)c1cc(OC[C@](C)(O)C(C)(C)C)n(-c2ccccc2F)n1` (single isomer, unassigned) [Example 747]: less than 100 nM; for `CC(C)(C)C(=O)COc1cc(C(=O)N[C@@H](CC(=O)O)c2ccccc2Cl)nn1-c1ccccc1F` [Example 777, (S)-3-(2-Chloro-phenyl)-3-{[5-(3,3-dimethyl-2-oxo-butoxy)-1-(2-fluoro-phenyl)-1H-pyrazole-3-carbonyl]-amino}-propionic acid]: less than 100 nM.
With `CCOc1cc(C(=O)NC(CC(=O)O)c2cccc(C)c2C)nn1-c1ccccc1F` (centres unmarked) [Example 723], the IC50 was less than 100 nM.
Still for that read-out and setting: the figure for `CCOc1cc(C(=O)N[C@@H](CC(=O)O)c2ccccc2OC)nn1-c1ccccc1Cl` [Example 729] is 100 to 1000 nM; for `CC(C)(C)[C@@](C)(O)COc1cc(C(=O)N[C@@H](CC(=O)O)c2cccc(Cl)c2)nn1-c1ccccc1F` [Example 774, (S)-3-(3-Chloro-phenyl)-3-{[1-(2-fluoro-phenyl)-5-((R)-2-hydroxy-2,3,3-trimethyl-butoxy)-1H-pyrazole-3-carbonyl]-amino}-propionic acid] it is less than 100 nM.
Same read-out and setting: the figure for `COc1ccc(-c2ccccc2)cc1C(CC(=O)O)NC(=O)c1cc(O)n(-c2ccccc2)n1` (centres unmarked) [Example 549, 3-[(5-Hydroxy-1-phenyl-1H-pyrazole-3-carbonyl)-amino]-3-(4-methoxy-biphenyl-3-yl)-propionic acid] is 1000 to 30000 nM.
On the same count and under the same terms, the same measure for `Cc1ccccc1[C@H](CC(=O)O)NC(=O)c1cc(OCc2ccon2)n(-c2ccccc2F)n1` [Example 647]: less than 100 nM; for `Cc1ccccc1[C@H](CC(=O)O)NC(=O)c1cc(OCc2ccno2)n(-c2ccccc2F)n1` [Example 658]: less than 100 nM; for `CC(C)(O)COc1cc(C(=O)N[C@@H](CC(=O)O)c2ccc(Cl)cc2Cl)nn1-c1ccccc1F` [Example 751, (S)-3-(2,4-Dichloro-phenyl)-3-{[1-(2-fluoro-phenyl)-5-(2-hydroxy-2-methyl-propoxy)-1H-pyrazole-3-carbonyl]-amino}-propionic acid]: less than 100 nM.

Staying with this test, now noted: read-out: Activity (2): Cathepsin A inhibitory activity, IC50 class.
Consider `O=C(O)CC(NC(=O)c1cc(O)n(-c2ccc(Cl)cc2)n1)c1cccc(Oc2ccc(Cl)cc2)c1` (centres unmarked) [Example 290], for which the IC50 is 1000 to 30000 nM.
Same read-out and setting: the same measure for `CC(C)[C@](C)(O)COc1cc(C(=O)N[C@@H](CC(=O)O)c2ccc(Cl)cc2Cl)nn1-c1ccccc1F` [Example 849, (S)-3-(2,4-Dichloro-phenyl)-3-{[1-(2-fluoro-phenyl)-5-((S)-2-hydroxy-2,3-dimethyl-butoxy)-1H-pyrazole-3-carbonyl]-amino}-propionic acid]: less than 100 nM; for `CC(C)(C)Oc1ccc(C(CC(=O)O)NC(=O)c2cc(O)n(-c3ccccc3)n2)cc1` (centres unmarked) [Example 23]: 1000 to 30000 nM.
Same read-out and setting: the same measure for `Cc1ccccc1[C@H](CC(=O)O)NC(=O)c1cc(O)n(-c2ccccc2)n1` [Example 82]: less than 100 nM.
Same read-out and setting: the figure for `O=C(O)C[C@H](NC(=O)c1cc(O)n(-c2ccc(Cl)cc2)n1)c1cccc(F)c1` [Example 279] is 1000 to 30000 nM; for `O=C(O)CC(NC(=O)c1cc(O)n(-c2ccc(F)cc2)n1)c1ccc(Cl)cc1F` (centres unmarked) [Example 357] it is 100 to 1000 nM; for `O=C(O)C[C@H](NC(=O)c1cc(O)n(-c2ccc(Cl)cc2)n1)c1cccnc1` [Example 298] it is 1000 to 30000 nM.
Regarding `COc1cccc(C(CC(=O)O)NC(=O)c2cc(O)n(-c3ccccc3)n2)c1` (centres unmarked) [Example 9], the IC50 was 100 to 1000 nM.
Still for that read-out and setting: the figure for `COc1cccc([C@H](CC(=O)O)NC(=O)c2cc(O)n(-c3ccc(Cl)cc3)n2)c1` [Example 278] is 1000 to 30000 nM.
For `Cc1cccc([C@H](CC(=O)O)NC(=O)c2cc(O)n(-c3ccc(Cl)cc3)n2)c1` [Example 284], the IC50 is 100 to 1000 nM.
Still for that read-out and setting: the figure for `CC(C)c1ccc(C(CC(=O)O)NC(=O)c2cc(O)n(-c3ccccc3)n2)cc1` (centres unmarked) [Example 24] is 100 to 1000 nM; for `Cc1cccc([C@H](CC(=O)O)NC(=O)c2cc(OCC(=O)C(C)(C)C)n(-c3ccccc3F)n2)c1` [Example 805, (S)-3-{[5-(3,3-Dimethyl-2-oxo-butoxy)-1-(2-fluoro-phenyl)-1H-pyrazole-3-carbonyl]-amino}-3-m-tolyl-propionic acid] it is less than 100 nM.
Consider `COc1ccc(C(CC(=O)O)NC(=O)c2cc(O)n(-c3ccccc3)n2)c(C)c1` (centres unmarked) [Example 373], for which the IC50 was 100 to 1000 nM.
Same read-out and setting: the figure for `CC(C)(CC(=O)O)NC(=O)c1cc(O)n(-c2ccccc2)n1` [Example 4] is 1000 to 30000 nM.

The same test, now with this note: recombinant human cathepsin A 833 ng/ml, Bodipy FL-labeled bradykinin 2 μM, pH 5.5; read-out: CATH-A IC50.
In the case of `O=C(O)C[C@H](NC(=O)c1cc(O)n(-c2ccc(F)cc2)n1)c1ccccc1Cl` [Example 528, (S)-3-(2-Chloro-phenyl)-3-{[1-(4-fluoro-phenyl)-5-hydroxy-1H-pyrazole-3-carbonyl]-amino}-propionic acid], the IC50 was found to be 413 nM.
The same measure, in the same setting: the same measure for `Cc1ccccc1[C@H](CC(=O)O)NC(=O)c1cc(OC[C@](C)(O)C(C)(C)C)n(-c2ccccc2F)n1` (single isomer, unassigned) [Example 747]: 14.7 nM; for `COc1ccc(-c2ccccc2)cc1C(CC(=O)O)NC(=O)c1cc(O)n(-c2ccccc2)n1` (centres unmarked) [Example 549, 3-[(5-Hydroxy-1-phenyl-1H-pyrazole-3-carbonyl)-amino]-3-(4-methoxy-biphenyl-3-yl)-propionic acid]: 13800 nM; for `Cc1c(F)cccc1C(CC(=O)O)NC(=O)c1cc(O)n(-c2ccccc2Cl)n1` (centres unmarked) [Example 455, 3-{[1-(2-Chloro-phenyl)-5-hydroxy-1H-pyrazole-3-carbonyl]-amino}-3-(3-fluoro-2-methyl-phenyl)-propionic acid]: 154 nM.
Same read-out and setting: the figure for `O=C(O)CC(NC(=O)c1cc(O)n(-c2ccc(Cl)cc2)n1)c1cc(F)ccc1Cl` (centres unmarked) [Example 470, 3-(2-Chloro-5-fluoro-phenyl)-3-{[1-(4-chloro-phenyl)-5-hydroxy-1H-pyrazole-3-carbonyl]-amino}-propionic acid] is 398 nM; for `COc1cccc(F)c1C(CC(=O)O)NC(=O)c1cc(O)n(-c2ccc(Cl)cc2)n1` (centres unmarked) [Example 469, 3-{[1-(4-Chloro-phenyl)-5-hydroxy-1H-pyrazole-3-carbonyl]-amino}-3-(2-fluoro-6-methoxy-phenyl)-propionic acid] it is 860 nM.

The test is the same for the next values; noted with them: recombinant human cathepsin A; read-out: Activity (2): Cathepsin A inhibitory activity, IC50 class.
Regarding `O=C(O)C[C@H](NC(=O)c1cc(O)n(-c2ccc(F)cc2)n1)c1ccccc1Cl` [Example 528, (S)-3-(2-Chloro-phenyl)-3-{[1-(4-fluoro-phenyl)-5-hydroxy-1H-pyrazole-3-carbonyl]-amino}-propionic acid], the concentration for half-maximal inhibition (IC50) fell in the range of 100 to 1000 nM.
In the case of `Cc1c(F)cccc1C(CC(=O)O)NC(=O)c1cc(O)n(-c2ccccc2Cl)n1` (centres unmarked) [Example 455, 3-{[1-(2-Chloro-phenyl)-5-hydroxy-1H-pyrazole-3-carbonyl]-amino}-3-(3-fluoro-2-methyl-phenyl)-propionic acid], the IC50 lay in the range of 100 to 1000 nM.
On the same count and under the same terms, the figure for `O=C(O)CC(NC(=O)c1cc(O)n(-c2ccc(F)cc2)n1)c1ccc(Oc2ccccc2)cc1` (centres unmarked) [Example 437] is 100 to 1000 nM; for `O=C(O)CC(NC(=O)c1cc(O)n(-c2ccccc2F)n1)c1ccc(Cl)c(Cl)c1` (centres unmarked) [Example 407] it is 100 to 1000 nM.
Same read-out and setting: the same measure for `O=C(O)CC(NC(=O)c1cc(O)n(-c2ccc(Cl)cc2)n1)c1cc(F)ccc1Cl` (centres unmarked) [Example 470, 3-(2-Chloro-5-fluoro-phenyl)-3-{[1-(4-chloro-phenyl)-5-hydroxy-1H-pyrazole-3-carbonyl]-amino}-propionic acid]: 100 to 1000 nM; for `COc1cccc(F)c1C(CC(=O)O)NC(=O)c1cc(O)n(-c2ccc(Cl)cc2)n1` (centres unmarked) [Example 469, 3-{[1-(4-Chloro-phenyl)-5-hydroxy-1H-pyrazole-3-carbonyl]-amino}-3-(2-fluoro-6-methoxy-phenyl)-propionic acid]: 100 to 1000 nM.
